According to patent US11780851B2, “LRRK2 inhibitors” (H. Lundbeck A/S, priority 2021, dated 2023):
“Also recorded” adds a separate entry of the source. Where two headings read alike, the source gives them in different places.

Experiments:
[1] = Free fraction in plasma (equilibrium dialysis); format: in vitro ADME, male Sprague-Dawley rat; conditions: rat plasma, 1 μM, 5 h at 37° C.
Protocol: The free fractions in male Sprague-Dawley rat or female Gottingen minipig plasma (fuplasma) and rat brain homogenate (fubrain) were determined by equilibrium dialysis using 96-well HTD-dialysis plates with dialysis membranes (molecular weight cut off 12-14 KDa). One side of the HTD-dialysis plate was loaded with matrix (plasma or brain homogenate) and the other side with buffer (100 mM sodium phosphate buffer, pH 7.4). Test compounds were dissolved in DMSO then spiked (5 μL of 0.2 mM) into blank (995 μL) plasma or diluted brain homogenate (1:4 ratio in phosphate buffer) giving a final nominal concentration 1 μM (≤0.5% DMSO). The matrices were loaded into respective chambers and equilibrated against phosphate buffer for 5 h at 37° C. (in a humidified air incubator with 5% CO2 with shaking). Samples from both chambers (buffer and plasma or brain homogenate) were aliquoted to fresh 96-well polypropylene plates then matrix matched using an equal volume of opposite blank matrix before extraction with cold solvent (3 volumes acetonitrile) containing an appropriate bioanalytical internal standard. After centrifugation (20 min, 3200 g, 4° C.) the supernatants were diluted with appropriate volumes of water and compound concentrations were quantified by LC/MS-MS against matrix matched calibration standards. The fuplasma and fubrain were calculated as a percent free according to equation 4 below.
Where [F] is the analyte concentration on the buffer (receiver) side of the membrane; [T] is the analyte concentration on the plasma or brain (donor) side of the membrane; [TO] is the analyte concentration in the plasma or brain sample at time zero; D is matrix dilution factor which is determined as 4 for brain matrix and 1 for plasma matrix in these assays.

LRRK2 G2019S = biological target: T1, LRRK2 G2019S (Homo sapiens, UniProt Q5S007, G2019S); assay: LRRK2 G2019S kinase activity assay (LanthaScreen TR-FRET); format: biochemical; conditions: 250 pM LRRK2 G2019S, 1.3 mM ATP, 3 h at 30° C.; n≥2 tests
T1 construct: purchased Invitrogen (Life Technologies Corporation)
T1 sequence (Q5S007 970-2527 G2019S): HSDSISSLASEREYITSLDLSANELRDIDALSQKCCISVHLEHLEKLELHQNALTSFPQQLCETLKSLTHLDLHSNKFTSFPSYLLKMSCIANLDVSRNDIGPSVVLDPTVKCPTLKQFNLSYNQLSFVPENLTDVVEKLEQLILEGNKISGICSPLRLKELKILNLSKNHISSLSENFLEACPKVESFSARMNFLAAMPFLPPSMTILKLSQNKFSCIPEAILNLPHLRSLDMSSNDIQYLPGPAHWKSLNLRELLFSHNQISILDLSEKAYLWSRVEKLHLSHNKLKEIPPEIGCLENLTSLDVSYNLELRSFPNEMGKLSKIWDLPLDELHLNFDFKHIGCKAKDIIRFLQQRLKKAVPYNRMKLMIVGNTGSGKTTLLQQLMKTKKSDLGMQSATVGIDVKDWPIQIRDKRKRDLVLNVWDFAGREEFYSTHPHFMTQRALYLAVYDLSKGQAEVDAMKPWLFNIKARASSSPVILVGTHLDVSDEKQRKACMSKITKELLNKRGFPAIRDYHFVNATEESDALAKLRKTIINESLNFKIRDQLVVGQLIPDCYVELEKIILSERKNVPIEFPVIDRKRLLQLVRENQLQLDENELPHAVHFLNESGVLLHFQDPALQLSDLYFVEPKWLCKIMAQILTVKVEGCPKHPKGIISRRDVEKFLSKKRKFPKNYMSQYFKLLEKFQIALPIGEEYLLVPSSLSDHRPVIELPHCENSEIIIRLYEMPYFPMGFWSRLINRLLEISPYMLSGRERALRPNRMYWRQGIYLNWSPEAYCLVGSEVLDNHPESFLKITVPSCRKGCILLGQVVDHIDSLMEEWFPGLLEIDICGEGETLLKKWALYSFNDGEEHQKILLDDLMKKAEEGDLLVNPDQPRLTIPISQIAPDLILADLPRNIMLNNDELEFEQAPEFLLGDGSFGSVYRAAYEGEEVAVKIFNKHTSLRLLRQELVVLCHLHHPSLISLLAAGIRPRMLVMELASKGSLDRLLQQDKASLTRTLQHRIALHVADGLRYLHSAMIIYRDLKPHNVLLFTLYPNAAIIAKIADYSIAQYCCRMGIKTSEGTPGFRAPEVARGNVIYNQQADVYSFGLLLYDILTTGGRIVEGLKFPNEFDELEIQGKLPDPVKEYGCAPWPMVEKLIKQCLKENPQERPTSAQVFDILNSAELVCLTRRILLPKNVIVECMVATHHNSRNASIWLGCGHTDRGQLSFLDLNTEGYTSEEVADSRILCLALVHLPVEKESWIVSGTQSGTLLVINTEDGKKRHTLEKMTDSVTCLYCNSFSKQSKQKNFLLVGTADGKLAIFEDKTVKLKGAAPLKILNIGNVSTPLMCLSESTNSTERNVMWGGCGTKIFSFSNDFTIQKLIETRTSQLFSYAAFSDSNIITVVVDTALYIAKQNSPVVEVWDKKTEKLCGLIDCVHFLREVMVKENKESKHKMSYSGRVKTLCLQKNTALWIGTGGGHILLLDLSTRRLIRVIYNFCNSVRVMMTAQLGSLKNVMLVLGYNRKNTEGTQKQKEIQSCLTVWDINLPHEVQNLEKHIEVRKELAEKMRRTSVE
Procedure, shortened: (§1)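 TR-FRET measured phosphorylation of fluorescein-ERM LRRKtide by human LRRK2 residues 970–2527, wild-type or G2019S, detected with a terbium anti-phospho-LRRKtide antibody. The 520/495 nm ratio was normalized to uninhibited and inhibitor controls. IC50 came from a Hill fit, log-averaged over independent experiments.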

LRRK2 WT = biological target: T2, LRRK2 WT (Homo sapiens, UniProt Q5S007); assay: LRRK2 wild-type kinase activity assay (LanthaScreen TR-FRET); format: biochemical; conditions: 1 nM LRRK2 WT, 1.3 mM ATP, 3.5 h at 30° C.; n≥2 tests
T2 construct: comprises residue 970 to 2527 of the full length human wild-type LRRK2 kinase; purchased Invitrogen (Life Technologies Corporation)
T2 sequence (Q5S007 970-2527): as the sequence (Q5S007 970-2527 G2019S) above, with S1050G counted along it
Procedure, shortened: as §1

[2] = Hepatocyte intrinsic clearance assay; format: in vitro ADME, human; conditions: human, pooled donor, cryopreserved hepatocytes, pH 7.4, 0.1 μM, 2 h at 37° C., 1×10^6 hepatocytes/mL; * measured on 3 separate occasions, ** on a single occasion
Protocol: Test compounds (final concentration 0.1 μM, 0.05% organic) were incubated for 2 h at 37° C., with shaking, in supplemented Leibovitz L-15 media (pH7.4) containing commercially sourced, pooled donor, cryopreserved hepatocytes (final concentration 1×10^6 hepatocytes/m L). The CLint reactions (350 μL) were initiated by addition of test compound. Aliquots (25 μL) were taken at 1, 5, 10, 15, 30, 60, 90 and 120 minutes and then protein crashed with ice-cold acetonitrile containing internal standard (150 μL) then centrifuged (1960 g for 20 minutes at 4° C.). Supernatant was diluted (1:4) with deionized water then analyzed by liquid chromatography (LC)-tandem mass spectrometry (MS/MS). The intrinsic clearances (CLint) were calculated from the slope (k) of the linear regressions of percentages of compound remaining in incubation against incubation time, according to equations 2 and 3.

[3] = Rat B/P (brain disposition); format: in vivo, male Sprague-Dawley rats; conditions: male, Sprague-Dawley; for concentration at 1 h / Kp uu at 1 h / Kp at 1 h: time point 1.0 h; for concentration at 1 h / Kp at 1 h / concentration at 0.5 h / Kp at 0.5 h: mean ± stdev; for Kp uu at 1 h / Kp at 1 h / Kp at 0.5 h / Kp uu at 0.5 h: brain/plasma; for Kp uu at 1 h / Kp uu at 0.5 h: fubrain from brain homogenate; for Kp at 1 h / Kp at 0.5 h: n = 3; for concentration at 0.5 h / Kp at 0.5 h / Kp uu at 0.5 h: time point 0.5 h
Protocol: Brain disposition was evaluated for each compound in male Sprague-Dawley rats (n=3, standard body weight). […] Isolated plasma and brain homogenates were extracted by standard protein precipitation in acetonitrile, containing internal standard, followed by LC-MS/MS analysis using an optimized analytical method. Concentrations of test compound in plasma and brain were quantified against matrix matched calibration standards. The total plasma and brain concentration data are presented in Table 7 alongside the calculated brain Kp (total brain concentration:total plasma concentration ratio).

GSH adduct screening = format: in vitro ADME, human; conditions: 1 μM, 3 h at 37° C., HLM 0.5 mg/mL, NADPH, with and without GSH
Protocol: Test compounds (final concentration 1 μM, 0.25% organic) were incubated for 3 h at 37° C. in commercially sourced, pooled donor, human liver microsomes (HLM, final concentration 0.5 mg/mL) with and without addition of glutathione (GSH; final concentration […]). The metabolic reaction was initiated by addition of microsomal solution to the mixture of cofactor NADPH (final concentration 1 mM), test compound and GSH. After 3 h of incubation in a water bath at 37° C., the reaction was stopped by addition of 0.2% formic acid in acetonitrile, followed by mixing and centrifugation (16000 g for 5 minutes). Supernatant was diluted (1:1) with HPLC water then analyzed by liquid chromatography (LC)-quadrupole time-of-flight mass spectrometry (QTOF-MS). Accurate mass MS and MS/MS spectra from samples with GSH and without GSH, respectively, were compared to identify detectable GSH and/or cysteine related adducts.

[4] = brain, oral gavage 10 mg/kg, n = 3, read-out: Total brain concentration
[5] = plasma, oral gavage 10 mg/kg, n = 3, read-out: Total plasma concentration

| SMILES | fuplasma (% free) [1] [% free] | IC50 (LRRK2 G2019S) [nM] | IC50 (LRRK2 WT) [nM] | CLint scaled at 0.1 μM [2] [mL/min/kg] | concentration at 1 h [3, 4] [ng/g] | Kp uu at 1 h ([3]; oral gavage 10 mg/kg) | Kp at 1 h ([3]; oral gavage 10 mg/kg) | concentration at 1 h [3, 5] [ng/mL] | Adduct detected in GSH supplemented HLMs (GSH adduct screening) | concentration at 0.5 h [3, 4] [ng/g] | Kp at 0.5 h ([3]; oral gavage 10 mg/kg) | concentration at 0.5 h [3, 5] [ng/mL] | concentration at 1 h ([3]; brain, oral gavage 5 mg/kg, n = 3, read-out: Total brain concentration) [ng/g] | Kp uu at 1 h ([3]; oral gavage 5 mg/kg) | Kp at 1 h ([3]; oral gavage 5 mg/kg) | concentration at 1 h ([3]; plasma, oral gavage 5 mg/kg, n = 3, read-out: Total plasma concentration) [ng/mL] | Kp uu at 0.5 h ([3]; oral gavage 10 mg/kg) |
| --- | --- | --- | --- | --- | --- | --- | --- | --- | --- | --- | --- | --- | --- | --- | --- | --- | --- |
| Cc1c2c(nn1[C@@H]1CCOC[C@H]1F)OCCCn1nc(Cl)c3cnc(nc31)N2 (single isomer, unassigned) [Example 31, (−)-8-Chloro-2-((3S,4R) or (3R,4S)-3-fluorotetrahydro-2H-pyran-4-yl)-3-methyl-2,4,12,13-tetrahydro-11H-5,7-(azenometheno)dipyrazolo[3,4-b:5′,1′-g][1]oxa[4,6,8]triazacycloundecine] | 24.9 | 2.4 | 5.6 | < 4.17 | 215 ± 70 | 0.5 ± 0.04 | 1.65 ± 0.13 | 133 ± 54 |  |  |  |  |  |  |  |  |  |
| Cc1c2c(nn1C1CCOCC1)OCCCn1nc(Cl)c3cnc(nc31)N2 [Example 2, 8-Chloro-3-methyl-2-(tetrahydro-2H-pyran-4-yl)-2,4,12,13-tetrahydro-11H-5,7-(azenometheno)dipyrazolo[3,4-b:5′,1′-g][1]oxa[4,6,8]triazacycloundecine] |  |  |  | 14.2 |  |  |  |  | +GSH |  |  |  |  |  |  |  |  |
| Cc1c2c(nn1[C@H]1C[C@@H](C)O[C@@H](C)C1)OCCCn1nc(Cl)c3cnc(nc31)N2 [Example 41, 8-chloro-2-((2R,4r,6S)-2,6-dimethyltetrahydro-2H-pyran-4-yl)-3-methyl-2,4,12,13-tetrahydro-11H-5,7-(azenometheno)dipyrazolo[3,4-b:5′,1′-g][1]oxa[4,6,8]triazacycloundecine] | 25.2 | 6.4 | 17 | 5.67 |  |  |  |  |  | 620 ± 30 | 2.5 ± 0.31 | 250 ± 24 |  |  |  |  |  |
| Cc1c2c(nn1[C@@H]1CCO[C@H](C)C1)OCCCn1nc(Cl)c3cnc(nc31)N2 (single isomer, unassigned) [Example 18] | 25.0 | 3.6 | 11 | < 4 | 897 ± 292 | 0.35 ± 0.05 | 1.47 ± 0.22 | 636 ± 265 | +GSH |  |  |  |  |  |  |  |  |
| Cc1c2c(nn1[C@H]1CCCCOC1)OCCCn1nc(Cl)c3cnc(nc31)N2 (single isomer, unassigned) [Example 27, (−)-(R) or (S)-8-Chloro-3-methyl-2-(oxepan-3-yl)-2,4,12,13-tetrahydro-11H-5,7-(azenometheno)dipyrazolo[3,4-b:5′,1′-g][1]oxa[4,6,8]triazacycloundecine] | 19.9 | 7.3 | 25 | 9.5 |  |  |  |  |  |  |  |  | 443 ± 50 | 0.52 ± 0.01 | 1.63 ± 0.03 | 273 ± 36 |  |
| Cc1c2c(nn1[C@@H]1C[C@H]3CC[C@@H](C1)O3)OCCCn1nc(Cl)c3cnc(nc31)N2 [Example 44, 2-((1R,3s,5S)-8-Oxabicyclo[3.2.1]octan-3-yl)-8-chloro-3-methyl-2,4,12,13-tetrahydro-11H-5,7-(azenometheno)dipyrazolo[3,4-b:5′,1′-g][1]oxa[4,6,8]triazacycloundecine] | 25.5 | 4.3 | 13 | < 4 |  |  |  |  |  | 731 ± 223 | 1.56 ± 0.23 | 468 ± 117 |  |  |  |  | 0.3 ± 0.04 |
| Cc1c2c(nn1[C@H]1CCOC(C)(C)C1)OCCCn1nc(Cl)c3cnc(nc31)N2 (single isomer, unassigned) [Example 42, (+)-(R) or (S)-8-Chloro-2-(2,2-dimethyltetrahydro-2H-pyran-4-yl)-3-methyl-2,4,12,13-tetrahydro-11H-5,7-(azenometheno)dipyrazolo[3,4-b:5′,1′-g][1]oxa[4,6,8]triazacycloundecine] | 21.7 | 2.9 | 7.9 | 6.33 |  |  |  |  |  | 550 ± 283 | 1.88 ± 0.31 | 295 ± 145 |  |  |  |  | 0.32 ± 0.05 |
| [2H]C([2H])([2H])c1c2c(nn1[C@H]1CCO[C@@H](C)C1)OCCCn1nc(Cl)c3cnc(nc31)N2 (single isomer, unassigned) [Example 51, (+)-8-Chloro-3-(methyl-d3)-2-((2R,4R) or (2S,4S)-2-methyltetrahydro-2H-pyran-4-yl)-2,4,12,13-tetrahydro-11H-5,7-(azenometheno)dipyrazolo[3,4-b:5′,1′-g][1]oxa[4,6,8]triazacycloundecine] |  | 5.3 | 9 | < 4 |  |  |  |  | +GSH |  |  |  |  |  |  |  |  |
| [2H]C([2H])([2H])c1c2c(nn1[C@H]1CC[C@H](OC)CC1)OCCCn1nc(Cl)c3cnc(nc31)N2 [Example 50] |  | 5.3 | 10 | < 4 |  |  |  |  | did not form GSH adduct; also recorded: None detected |  |  |  |  |  |  |  |  |
| CCc1c2c(nn1[C@H]1CC[C@H](OC)CC1)OCCCn1nc(Cl)c3cnc(nc31)N2 [Example 57, 8-Chloro-3-ethyl-2-((1r,4r)-4-methoxycyclohexyl)-2,4,12,13-tetrahydro-11H-5,7-(azenometheno)dipyrazolo[3,4-b:5′,1′-g][1]oxa[4,6,8]triazacycloundecine] |  | 6.2 | 16 | 8.5 |  |  |  |  |  |  |  |  |  |  |  |  |  |
